Results as given in ChEMBL document CHEMBL1201862, “PubChem BioAssay data set” (2004).
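These data come from cells grown in 96-well plates and exposed to compound for 48 hours at five concentrations. Here, GI50 denotes the concentration required for 50% inhibition of growth.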 Activity calls are given as the source filed them. Cut-off read from the data, not from the text of the source: active = GI50 up to about 1.1 µM and inactive = higher.

Tests used:
Test in all cases: NCI anticancer screen, dose series, 48 h
[1] = test system: 786-0
[2] = test system: A498
[3] = test system: A549
[4] = test system: ACHN
[5] = test system: CAKI-1
[6] = test system: CCRF-CEM
[7] = test system: COLO 205
[8] = test system: DLD-1
[9] = test system: DMS-114
[10] = test system: DMS-273
[11] = test system: EKVX
[12] = test system: HCC 2998
[13] = test system: HCT-116
[14] = test system: HCT-15
[15] = test system: HL-60
[16] = test system: HOP-18
[17] = test system: HOP-62
[18] = test system: HOP-92
[19] = test system: HT-29
[20] = test system: IGROV-1
[21] = test system: K562
[22] = test system: KM-20L2
[23] = test system: KM12
[24] = test system: LOX IMVI
[25] = test system: LXFL 529
[26] = test system: M14
[27] = test system: M19-MEL
[28] = test system: MOLT-4
[29] = test system: Malme-3M
[30] = test system: NCI-H226
[31] = test system: NCI-H23
[32] = test system: NCI-H460
[33] = test system: NCI-H522
[34] = test system: OVCAR-3
[35] = test system: OVCAR-4
[36] = test system: OVCAR-5
[37] = test system: OVCAR-8
[38] = test system: RPMI-8226
[39] = test system: RXF 393
[40] = test system: SF-268
[41] = test system: SF-295
[42] = test system: SF-539
[43] = test system: SK-MEL-28
[44] = test system: SK-MEL-2
[45] = test system: SK-MEL-5
[46] = test system: SK-OV-3
[47] = test system: SN12C
[48] = test system: SNB-19
[49] = test system: SNB-75
[50] = test system: SNB-78
[51] = test system: SR
[52] = test system: SW-620
[53] = test system: TK-10
[54] = test system: U-251
[55] = test system: UACC-257
[56] = test system: UACC-62
[57] = test system: UO-31
[58] = test system: XF498

Measured: GI50

O=C(CC(=O)c1ccccc1)C(=O)NC12CC3CC(CC(C3)C1)C2
> 37.8 µM: [14]
inactive: [1] > 56.2 µM | [2] > 100 µM | [3] > 54.1 µM | [4] > 100 µM | [5] > 100 µM | [6] > 49.2 µM | [7] > 45 µM | [8] > 47.5 µM | [9] > 42.4 µM | [10] > 47 µM | [11] > 100 µM | [12] > 100 µM | [13] > 64.1 µM | [15] > 48.5 µM | [16] > 100 µM | [17] > 100 µM | [18] > 100 µM | [19] > 100 µM | [20] > 100 µM | [21] > 56.9 µM | [22] > 75.7 µM | [23] > 100 µM | [24] > 34.6 µM | [25] > 100 µM | [26] > 100 µM | [27] > 100 µM | [28] > 100 µM | [29] > 100 µM | [30] > 100 µM | [31] > 100 µM | [32] > 40.7 µM | [33] > 83.4 µM | [34] > 100 µM | [35] > 100 µM | [36] > 100 µM | [37] > 100 µM | [38] > 45.3 µM | [39] > 31.9 µM | [40] > 91.4 µM | [41] > 100 µM | [42] > 100 µM | [43] > 100 µM | [44] > 100 µM | [45] > 100 µM | [46] > 100 µM | [47] > 100 µM | [48] > 100 µM | [49] > 69.7 µM | [50] > 100 µM | [51] > 100 µM | [52] > 41.6 µM | [53] > 100 µM | [54] > 88.9 µM | [55] > 100 µM | [56] > 100 µM | [57] > 100 µM | [58] > 100 µM

CCSC1(SCC)CC(Cc2ccc(OC)cc2)N(/C=N/C(C)(C)C)C1 (centres undefined)
25.8 µM: [14]
active: [18] 0.321 µM
inactive: [1] 32.1 µM | [2] 33.6 µM | [3] 36.9 µM | [4] 32.5 µM | [5] 21 µM | [6] 15.2 µM | [7] 21 µM | [8] 33.5 µM | [9] 20.1 µM | [10] 37.4 µM | [11] 27 µM | [12] 17 µM | [13] 20.9 µM | [15] 10.6 µM | [16] 41.1 µM | [17] 56.9 µM | [19] 10.7 µM | [20] 37.8 µM | [21] 17.8 µM | [22] 12.9 µM | [23] 25.9 µM | [24] 15.1 µM | [25] 25.3 µM | [26] 14.7 µM | [27] 29 µM | [28] 14.7 µM | [29] 20.1 µM | [30] 27.6 µM | [31] 18.7 µM | [32] 8.51 µM | [33] 15 µM | [34] 27.8 µM | [35] 29.7 µM | [36] 11.5 µM | [37] 28.2 µM | [39] 11.5 µM | [40] 61 µM | [41] 15.1 µM | [42] 54.5 µM | [43] 35.8 µM | [44] 33.1 µM | [45] 16.4 µM | [46] 22.8 µM | [47] 25 µM | [48] 38.7 µM | [49] 26.2 µM | [50] 31.8 µM | [51] 10.6 µM | [52] 15.1 µM | [53] 17.3 µM | [54] 19.1 µM | [55] 20.2 µM | [56] 19.1 µM | [57] 17.3 µM | [58] 18.1 µM

COC(=N)/C(=C1\OC(=N)C(c2ccc(Cl)cc2)=C1O)c1ccc(Cl)cc1
inactive: [1] > 100 µM | [2] > 100 µM | [3] > 100 µM | [4] > 100 µM | [5] > 100 µM | [6] 70.5 µM | [7] > 100 µM | [8] > 100 µM | [9] > 100 µM | [10] > 100 µM | [11] > 100 µM | [12] > 100 µM | [13] > 100 µM | [15] 81.7 µM | [16] > 100 µM | [17] > 100 µM | [18] > 100 µM | [19] > 100 µM | [20] > 100 µM | [21] > 100 µM | [22] > 100 µM | [23] > 100 µM | [24] > 100 µM | [25] 74.3 µM | [26] > 100 µM | [27] > 100 µM | [28] > 100 µM | [29] > 100 µM | [30] > 100 µM | [31] > 100 µM | [32] > 100 µM | [33] > 100 µM | [34] > 100 µM | [35] > 100 µM | [36] > 100 µM | [37] > 100 µM | [38] 81.8 µM | [39] > 100 µM | [40] > 100 µM | [41] > 100 µM | [42] > 100 µM | [43] > 100 µM | [44] > 100 µM | [45] > 100 µM | [46] > 100 µM | [47] > 100 µM | [48] > 100 µM | [49] > 100 µM | [50] > 100 µM | [51] > 100 µM | [52] > 100 µM | [53] > 100 µM | [54] > 100 µM | [55] > 100 µM | [56] > 100 µM | [57] > 100 µM | [58] > 100 µM
> 100 µM: [14]

CCC(C)c1cccc(C)c1NC(=O)C(=O)Cc1nc2ccccc2s1 (centres undefined)
inactive: [1] > 100 µM | [2] > 100 µM | [3] > 100 µM | [4] > 100 µM | [5] > 100 µM | [6] > 100 µM | [7] > 100 µM | [8] > 100 µM | [9] > 100 µM | [10] > 100 µM | [11] > 100 µM | [12] > 100 µM | [13] > 100 µM | [15] > 100 µM | [16] > 100 µM | [17] > 100 µM | [18] > 100 µM | [19] > 100 µM | [20] > 100 µM | [21] > 100 µM | [22] > 100 µM | [23] > 100 µM | [24] > 100 µM | [25] > 100 µM | [26] > 100 µM | [27] > 100 µM | [28] > 100 µM | [29] > 100 µM | [31] > 100 µM | [32] > 100 µM | [33] > 100 µM | [34] > 100 µM | [35] > 100 µM | [36] > 100 µM | [37] > 100 µM | [38] > 100 µM | [39] > 100 µM | [40] > 100 µM | [41] > 100 µM | [42] > 100 µM | [43] > 100 µM | [44] > 100 µM | [45] > 100 µM | [46] > 100 µM | [47] > 100 µM | [48] > 100 µM | [49] > 100 µM | [50] > 100 µM | [52] > 100 µM | [53] > 100 µM | [54] > 100 µM | [55] > 100 µM | [56] > 100 µM | [57] > 100 µM | [58] > 100 µM
> 100 µM: [14]
